The values that follow come from patent publication US9598459B2, “Pharmaceutical compositions and methods” (priority 2015, dated 2017).

Values joined by “and” are separate entries in the source; they are usually repeats but may differ in a detail not shown here. Identical values can stand only once. Like-named read-outs stand apart in the source and are kept apart here.

The subject of one data set is CCRF-CEM. In words: Cytotoxicity on CCRF-CEM. The settings on record: CCRF-CEM.
The next data set addresses T1, cytosolic GRs (Homo sapiens, UniProt P04150).
T1 sequence (P04150 1-777): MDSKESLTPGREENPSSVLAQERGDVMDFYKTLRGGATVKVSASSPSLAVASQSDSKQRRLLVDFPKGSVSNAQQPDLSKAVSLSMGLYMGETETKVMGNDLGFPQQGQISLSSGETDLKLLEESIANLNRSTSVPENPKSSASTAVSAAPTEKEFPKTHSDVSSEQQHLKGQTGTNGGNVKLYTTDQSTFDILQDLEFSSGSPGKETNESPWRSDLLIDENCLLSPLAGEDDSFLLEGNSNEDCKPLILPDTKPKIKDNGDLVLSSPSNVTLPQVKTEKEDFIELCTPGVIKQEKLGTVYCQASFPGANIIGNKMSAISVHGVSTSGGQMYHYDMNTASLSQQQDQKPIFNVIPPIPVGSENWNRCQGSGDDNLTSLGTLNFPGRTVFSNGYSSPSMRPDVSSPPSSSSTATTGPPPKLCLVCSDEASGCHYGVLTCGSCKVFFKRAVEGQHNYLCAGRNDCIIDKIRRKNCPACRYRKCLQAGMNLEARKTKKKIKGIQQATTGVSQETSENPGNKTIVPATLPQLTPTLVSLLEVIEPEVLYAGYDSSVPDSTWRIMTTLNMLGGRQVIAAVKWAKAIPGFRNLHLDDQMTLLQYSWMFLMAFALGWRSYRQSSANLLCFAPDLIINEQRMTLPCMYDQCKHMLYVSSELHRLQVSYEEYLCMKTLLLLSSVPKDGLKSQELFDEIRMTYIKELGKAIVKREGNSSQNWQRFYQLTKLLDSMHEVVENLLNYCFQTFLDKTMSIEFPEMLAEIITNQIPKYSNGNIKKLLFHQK
The following applies: Peeters et al., 2008; cited from earlier work.

The nature of another data set: Cytotoxicity on CCRF-CEM. The following applies: human.
Data set [1] can be described thus: in vitro. The following applies: African green monkey, Cytotoxicity CC50.
Data set [2] addresses cytosolic progesterone receptors (PR) (Homo sapiens, UniProt P06401). The following applies: Peeters et al., 2008; cited from earlier work.
Data set [3] can be described thus: in vitro.
The conditions of data set [4]: rats, twice daily 4 mg kg−1 po; cited from earlier work.

Sequence of cytosolic progesterone receptors (PR) (P06401 whole entry): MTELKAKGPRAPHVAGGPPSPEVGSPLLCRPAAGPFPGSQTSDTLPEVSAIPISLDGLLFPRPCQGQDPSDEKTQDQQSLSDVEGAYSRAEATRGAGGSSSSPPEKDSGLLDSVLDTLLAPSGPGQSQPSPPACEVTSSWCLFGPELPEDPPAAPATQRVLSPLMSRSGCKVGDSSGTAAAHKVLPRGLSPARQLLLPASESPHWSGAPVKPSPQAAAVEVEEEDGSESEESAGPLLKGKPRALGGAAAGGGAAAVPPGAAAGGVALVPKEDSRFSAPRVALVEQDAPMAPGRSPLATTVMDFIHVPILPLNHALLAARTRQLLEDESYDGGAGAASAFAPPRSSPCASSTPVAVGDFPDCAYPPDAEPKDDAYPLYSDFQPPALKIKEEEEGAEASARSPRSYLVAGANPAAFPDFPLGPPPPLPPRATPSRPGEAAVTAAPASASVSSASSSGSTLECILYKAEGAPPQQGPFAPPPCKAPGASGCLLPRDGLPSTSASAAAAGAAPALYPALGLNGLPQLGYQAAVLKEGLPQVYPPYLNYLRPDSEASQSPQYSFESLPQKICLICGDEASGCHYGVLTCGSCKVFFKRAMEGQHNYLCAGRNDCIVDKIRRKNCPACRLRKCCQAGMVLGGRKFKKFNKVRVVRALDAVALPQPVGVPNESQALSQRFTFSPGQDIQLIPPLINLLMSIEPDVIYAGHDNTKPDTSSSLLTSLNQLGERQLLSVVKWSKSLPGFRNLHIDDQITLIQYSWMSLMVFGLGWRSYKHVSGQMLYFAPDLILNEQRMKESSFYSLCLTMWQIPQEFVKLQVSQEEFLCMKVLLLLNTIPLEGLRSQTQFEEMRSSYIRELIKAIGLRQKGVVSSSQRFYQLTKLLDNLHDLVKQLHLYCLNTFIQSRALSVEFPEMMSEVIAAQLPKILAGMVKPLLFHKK

As to `CC#CC1(O)CCC2C3CCC4=CC(=NNC(N)=S)CCC4=C3C(c3ccc4c(c3)OCO4)CC21C.CC#CC1(O)CCC2C3CCC4=CC(=O)CCC4=C3C(c3ccc4c(c3)OCO4)CC21C.CC(C)=O.CCO.O` (stereo not drawn) [PT155, ⅓ (11β,17β)-17-Hydroxy-11-[3,4-(methylenedioxy)phenyl]-17-(1-propyn-1-yl)estra-4,9-dien-3-one (ORG34517)×(2EZ)-2-{(11β,17β)-17-hydroxy-11-[3,4-(methylenedioxy)phenyl]-17-(1-propyn-1-yl)estra-4,9-dien-3-ylidene}hydrazinecarbothioamide [71.8% (E), 28.2% (Z)] hemihydrate×¾% acetone× ⅛ ethanol], the “cellular growth at fixed 100 μM concentration” value in the data set on Vero was “(96.1) %”. The CC50 was found to be 7.1 µM in the data set with CCRF-CEM (Cytotoxicity control, CellTiter MTS) and 7.1 µM with CCRF-CEM (read-out: Cytotoxicity CC50).
On to `CC#C[C@]1(O)CC[C@H]2[C@@H]3CCC4=CC(=O)CCC4=C3[C@@H](c3ccc4c(c3)OCO4)C[C@@]21C` [PT150, (11β,17β)-11-(1,3-benzodioxol-5-yl)-17-hydroxy-17-(1-propynyl)-estra-4,9-dien-3-one], for which the “bound to cytosolic GRs, value” on cytosolic GRs is on record as 365%. In addition, the CC50 in “Cytotoxicity on CCRF-CEM” (CCRF-CEM cells (T-lymphoblastic acute T cell leukemia), Cytotoxicity CC50, CCRF-CEM) was 15.4 µM; in “Cytotoxicity on CCRF-CEM” (CCRF-CEM cells, CC50, Cytotoxicity control, CCRF-CEM, CellTiter MTS), 15.4 µM; in “in vitro [1]”, 44.3 µM; in “in vitro [3]” (CC50), greater than 100 µM; in “in vitro [3]” (human, CC50), 7.4 µM and 3.3 µg/mL; in the data set “in vitro [3]” (human, Cytotoxicity 50% CC50) it was 7.4 µM. For the same molecule, in data set [2], the “value for the cytosolic progesterone receptors (PR)” value is 6.4%. Further, the embryos lost in data set [4] is on record as roughly 100%.
